Results as given in patent US4642341A, “Carbapenem antibiotics” (priority 1985, dated 1987).
Values after ≈ are worked out from the molar mass of the structure shown. Read-outs that look alike come from different tables or passages of the source.

Assays:
S. pneumoniae A-9585 = test: Minimum Inhibitory Concentration, tube dilution; type: cell-based; details: Streptococcus pneumoniae, A9585, overnight 37° C.; table 6
S. pyogenes A-9604 = test: Minimum Inhibitory Concentration, tube dilution; type: cell-based; details: Streptococcus pyogenes, A9604, overnight 37° C.; table 6
S. aureus A-9537 = test: Minimum Inhibitory Concentration, tube dilution; type: cell-based; details: Staphylococcus aureus, table 6, read-out: MIC
[1] = test system: S. aureus A-9606 (Pen-res.); test: Minimum Inhibitory Concentration, tube dilution; type: cell-based; details: Staphylococcus aureus, Pen-res; table 6
[2] = test system: S. aureus A15097 (Meth-res.); test: Minimum Inhibitory Concentration, tube dilution; type: cell-based; details: Staphylococcus aureus, table 6
S. faecalis A20688 = test: Minimum Inhibitory Concentration, tube dilution; type: cell-based; details: Enterococcus faecalis, A20688, overnight 37° C.; table 6; read-out: MIC
E. coli A15119 = test: Minimum Inhibitory Concentration, tube dilution; type: cell-based; details: Escherichia coli, A15119, overnight 37° C.; table 6
E. coli A20341-1 = test: Minimum Inhibitory Concentration, tube dilution; type: cell-based; details: Escherichia coli, A203411, overnight 37° C.; table 6
K. pneumoniae A20468 = test: Minimum Inhibitory Concentration, tube dilution; type: cell-based; details: Klebsiella pneumoniae
P. mirabilis A-9900 = test: Minimum Inhibitory Concentration, tube dilution; type: cell-based; details: Proteus mirabilis, A9900, overnight 37° C.; table 6
P. vulgaris A21559 = test: Minimum Inhibitory Concentration, tube dilution; type: cell-based; details: Proteus vulgaris, A21559, overnight 37° C.; table 6
S. marcescens A20019 = test: Minimum Inhibitory Concentration, tube dilution; type: cell-based; details: Serratia marcescens, A20019, overnight 37° C.; table 6
P. aeruginosa A-9843A = test: Minimum Inhibitory Concentration, tube dilution; type: cell-based; details: Pseudomonas aeruginosa, A9843A, overnight 37° C.; table 6; read-out: MIC
P. aeruginosa A21213 = test: Minimum Inhibitory Concentration, tube dilution; type: cell-based; details: Pseudomonas aeruginosa
H. influenzae A-9833 = test: Minimum Inhibitory Concentration, tube dilution; type: cell-based; details: Haemophilus influenzae, A9833; overnight 37° C.; table 6; read-out: MIC
H. influenzae A21518 = test: Minimum Inhibitory Concentration, tube dilution; type: cell-based; details: Haemophilus influenzae, overnight 37° C., table 6
B. fragilis A22862 = test: Minimum Inhibitory Concentration, tube dilution; type: cell-based; details: Bacteroides fragilis, overnight 37° C., table 6
B. fragilis A22696 = test: Minimum Inhibitory Concentration, tube dilution; type: cell-based; details: Bacteroides fragilis
M. morganii A15153 = test: Minimum Inhibitory Concentration, tube dilution; type: cell-based; details: Morganella morganii, A15153, overnight 37° C.; table 6
P. aeruginosa A20481 = test: Protective effect, intramuscular treatment of infected mice (table 7); type: in vivo; details: Pseudomonas aeruginosa, A20481, im; i.m. 1 and 3.5 hours post-infection; ~1×10^5 organisms i.p.; read-out: PD50 /treatment
Protocol: (§1) Drugs were administered i.m. 0 to 2 hours post-infection (A9606) or 1 and 3.5 hours post-infection for the others.

P. mirabilis A9900 = test: as above; type: in vivo; details: Proteus mirabilis, A9900, im; i.m. 1 and 3.5 hours post-infection; ~1×10^7 organisms i.p.; read-out: PD50 /treatment
Protocol: as §1

S. aureus A9606 = test: as above; type: in vivo; details: Staphylococcus aureus, A9606, im; i.m. 0 to 2 hours post-infection; ~1×10^9 organisms i.p.; read-out: PD50 /treatment
Protocol: as §1

P. aeruginosa A9843A = test: animal or person; type: in vivo, mice; details: Pseudomonas aeruginosa, in Mus musculus, im, 3.5 h, read-out: PD50 /treatment
Protocol: as §1

[3] = Pharmacokinetic parameters in the mouse after intramuscular dose; type: in vivo, mice; details: im, 20 mg/kg; for AUC / Cmax / half-life: blood; for half-life: read-out: T1/2 (blood); for dose excreted: urine, read-out: Urine Recovery
From the text: Also shown is the urinary recovery in the mice.
Compounds were solubilized in 0.1 M phosphate buffer pH 7.

[4] = Half-life in phosphate buffer pH 7.4; type: physicochemical; details: phosphate buffer
Protocol: To a solution of p-nitrobenzyl 3-[2-(1-pyridinium)ethylthio)]-6α[1-(R)-hydroxyethyl]-7-oxo-1-azabicyclo(3.2.0)hept-2-ene-carboxylate diphenylphosphate (0.16 g, 0.22 mmol) in wet tetrahydrofuran (10mL) was added ether (10mL), potassium phosphate monobasic-sodium hydroxide buffer pH 7.4 (16 mL, 0.05 M) and 10% palladium on charcoal (0.16 g). The resulting mixture was hydrogenated under 40 psi for 1 h at 25° C. The two phases were separated and the organic phase was extracted with water (2×3 mL). The aqeuous solutions were combined, washed with ether (2×10 ml) and poured on top of a column (1.5×6.2 cm) pf μ-bondapak C-18 after the traces of organic solvents have been removed under vacuum. Elution of the column with water gave after lyophylization of the appropriate fractions a yellowish powder 0.062 g (84%), ir (KBr) .nu.max : 3700-3000 (OH), 1755 (C--O of β-lactam), 1630 (pyridinium), 1590 cm^-1 (carboxylate), ^1 Hmr (D2 O): 1.22 (3H, d, J=6.4 Hz, CH3 CHOH), 2.92 (d, J=9.1 Hz, H-4), 2.97 (d, J=9.1 Hz, H-4), 3.20 (dd, J=2.5 Hz, J=6.1 Hz, H-6), 3.44 (t, J=6.0 Hz, CH2 S), 3.93 (dd, J=9.1 Hz, J=2.5 Hz, H-5), 4.82 (t, J=6.0 Hz, CH2 N^+), 8.04 (m, Hm of pyridinium), 8.5 (m, Hp of pyridinium), 8.82 (dd, J=3.2. Hz, J=1.1 Hz, Ho of pyridinium), uv (H2 O) λ max : 259 (ε5800), 296 (ε7030) mμ, .tau.1/2 =13.5 h (measured at a concentration of 10^-4 M in phosphate buffer pH 7.4 at 36.8° C.).

P. rettgeri A22424 = test: Minimum Inhibitory Concentration, tube dilution; type: cell-based; details: Providencia rettgeri, overnight 37° C., table 6, read-out: MIC
E. cloacae A-9656 = test: Minimum Inhibitory Concentration, tube dilution; type: cell-based; details: Enterobacter cloacae, A9656; overnight 37° C.; table 6
E. cloacae A9659 = test: Minimum Inhibitory Concentration, tube dilution; type: cell-based; details: Enterobacter cloacae, A9659, overnight 37° C.; table 6; read-out: MIC

| SMILES | MIC (S. pneumoniae A-9585) | MIC (S. pyogenes A-9604) | MIC (S. aureus A-9537; A9537, overnight 37° C.) | MIC [1] | MIC [2] | MIC (S. faecalis A20688) | MIC (E. coli A15119) | MIC (E. coli A20341-1) | MIC (P. mirabilis A-9900) | MIC (P. vulgaris A21559) | MIC (P. aeruginosa A-9843A) | MIC (H. influenzae A-9833) | MIC (H. influenzae A21518) | MIC (B. fragilis A22862) | MIC (M. morganii A15153) | ED50 (P. aeruginosa A20481) | ED50 (P. mirabilis A9900) | ED50 (S. aureus A9606) | ED50 (P. aeruginosa A9843A) | AUC [3] | also measured |
| --- | --- | --- | --- | --- | --- | --- | --- | --- | --- | --- | --- | --- | --- | --- | --- | --- | --- | --- | --- | --- | --- |
| C[C@@H](O)[C@H]1C(=O)N2C(C(=O)[O-])=C(SCC[n+]3ccc(CO)cc3)C[C@H]12 [Example 6, (5R, 6S)-3-[2-(4-hydroxymethylpyridinio)ethylthio]-6-[1-(R)-hydroxyethyl]-7-oxo-1-azabicyclo[3.2.0]hept-2-ene-2-carboxylate] | 0.03 µg/mL (≈ 0.0823 µM) | 0.03 µg/mL (≈ 0.0823 µM) | 0.03 µg/mL (≈ 0.0823 µM) | 0.03 µg/mL (≈ 0.0823 µM) | > 63 µg/mL | 1 µg/mL (≈ 2.74 µM) | 0.03 µg/mL (≈ 0.0823 µM) | 0.03 µg/mL (≈ 0.0823 µM) | 0.06 µg/mL (≈ 0.165 µM) | 0.03 µg/mL (≈ 0.0823 µM) | 4 µg/mL (≈ 11 µM) | > 32 µg/mL | > 32 µg/mL | 0.06 µg/mL (≈ 0.165 µM) | 0.03 µg/mL (≈ 0.0823 µM) | 0.6 mg/kg | ~16 mg/kg | ~3 mg/kg | 0.9 mg/kg | 7700 ng·h/mL | MIC (K. pneumoniae A20468; A20468): 0.5 µg/mL (≈ 1.37 µM); MIC (S. marcescens A20019): 0.06 µg/mL (≈ 0.165 µM); MIC (P. aeruginosa A21213; A21213): 0.5 µg/mL (≈ 1.37 µM); MIC (B. fragilis A22696): 0.5 µg/mL (≈ 1.37 µM); Cmax [3]: 15200 ng/mL; half-life [3]: 0.167 h; dose excreted [3]: 38 ± 13%; half-life ([4]; pH 7.4, t1/2 (half-life)): 14.5 h |
| Cc1cc(C)c[n+](CCSC2=C(C(=O)[O-])N3C(=O)[C@H]([C@@H](C)O)[C@H]3C2)c1 [Example 4] | 0.03 µg/mL (≈ 0.0828 µM) | 0.03 µg/mL (≈ 0.0828 µM) | 0.03 µg/mL (≈ 0.0828 µM) | 0.5 µg/mL (≈ 1.38 µM) | > 63 µg/mL | 0.5 µg/mL (≈ 1.38 µM) | 0.06 µg/mL (≈ 0.166 µM) | 0.06 µg/mL (≈ 0.166 µM) | 0.25 µg/mL (≈ 0.69 µM) | 0.03 µg/mL (≈ 0.0828 µM) | 32 µg/mL (≈ 88.3 µM) | > 32 µg/mL | > 32 µg/mL | 0.06 µg/mL (≈ 0.166 µM) | 0.25 µg/mL (≈ 0.69 µM) | > 5 mg/kg | ~22 mg/kg | 0.4 mg/kg | 5 mg/kg | 5500 ng·h/mL | MIC (S. aureus A-9537; A9537, 50% serum): 0.03 µg/mL (≈ 0.0828 µM); MIC (K. pneumoniae A20468; A20468, overnight 37° C., table 6, read-out: MIC): 0.25 µg/mL (≈ 0.69 µM); MIC (P. rettgeri A22424): 0.5 µg/mL (≈ 1.38 µM); MIC (E. cloacae A-9656): 0.25 µg/mL (≈ 0.69 µM); MIC (P. aeruginosa A21213; A21213, overnight 37° C., table 6, read-out: MIC): 2 µg/mL (≈ 5.52 µM); MIC (B. fragilis A22696; overnight 37° C., table 6, read-out: MIC): 0.25 µg/mL (≈ 0.69 µM); MIC (E. cloacae A9659): 0.25 µg/mL (≈ 0.69 µM); Cmax [3]: 11400 ng/mL; half-life [3]: 0.173 h; dose excreted [3]: 49 ± 6%; half-life at 100 µM ([4]; pH 7.4, τ1/2 (half-life)): 16.9 h |
